According to patent US20090074672A1, “Tumor Boundary Imaging” (SRI International, priority 2007, published 2009):
Where no end group is shown, it is not given here.

Tested on: fibrin gel
Assay: TG substrate viability: cross-linking into fibrin gel
Assay type: biochemical
Conditions: in the presence of Ca2+
Method: TG Substrate Viability Assays. Viability was tested by: (1) cross-linking into fibrin gel, and (2) reacting with fibrinogen in the presence of Guinea pig liver TG. […] In the presence of Ca2+, cross-linked fibrin clots were formed.

## peptide: TG substrate peptide NQEQVSP (SEQ ID NO:01) conjugated to FITC or HiLyte Fluor 750 via N-hydroxysuccinimide chemistry (also: FITC or HiLyte Fluor 750 conjugated via NHS chemistry)
  cross-linking into fibrin clot (fluorescence intensity): crosslinked into the fibrin clot
